Results from US4483833A, “Process for selective removal of H2 S from mixtures containing H2 2 with heterocyclic tertiary aminoalkanols” (Exxon Research & Engineering Co., priority 1982, dated 1984).
Where two headings read alike, the source gives them in different places.

What was measured:
[1] = Boiling point (volatility) of aminoalkanol; format: physicochemical
Source text: Also, to insure operational efficiency with minimal losses of the amino compound, the amino compound should have a relatively low volatility. […]
It can be seen that in each case the boiling points increase relative to the respective parent compound while the pKa remains constant.

[2] = pKa of aminoalkanol; format: physicochemical; settings: at 20° C.
[3] = pressure not stated; background; cited from earlier work
[4] = 15N NMR chemical shift as a means of determining selectivity to H2S removal; format: physicochemical; settings: 90% by wt. amine in 10% by wt. D2O, 35° C.; liquid ammonia at 25° C. as zero reference
Method: Another means for determining whether an amino compound is selective to H2 S removal is by measuring its 15N nuclear magnetic resonance (NMR) chemical shift. […] D2 O at 35° C. is measured by a spectrometer using liquid (neat) ammonia at 25° C. as a zero reference value. For example, N-(2-hydroxyethoxyethyl)pyrrolidine (HEEP) has a ^15 N NMR chemical shift value of δ+53.2 ppm whereas diethylmonoethanolamine (DEAE), N-methyl-N-tertiarybutylaminoethoxyethanoland methyldiethanolamine (MDEA) have ^15 N NMR chemical shift values of δ+43.7, δ+45.0 and δ+27.4 ppm, respectively.

OCCOCCCN1CCCC1
boiling point ([1]; at 20 mm): 140 °C | pKa [2]: 10.20

CC(O)CN1CCCC1 (stereo not drawn)
boiling point ([1]; at 14 mm): 75 °C | pKa [2]: 10.20

CC(O)COC(C)CN1CCCC1 (stereo not drawn)
boiling point ([1]; at 1 mm): 100 °C | pKa [2]: 10.20

CCN(CC)CCO [DEAE, diethylmonoethanolamine]
boiling point [3]: 161 °C

CC(CCO)N1CCCC1 (stereo not drawn) [H2BP, N-(4-hydroxy-2-butyl)pyrrolidine]
boiling point ([1]; at 7 mm): 98 °C | pKa [2]: 10.25

OCCCCN1CCCC1 [HBP, N-(4-hydroxybutyl) pyrrolidine]
boiling point ([1]; at 2 mm): 95 °C | pKa [2]: 10.21

OCCOCCN1CCCC1 [HEEP, N-(2-hydroxyethoxyethyl)pyrrolidine]
boiling point ([1]; at 5 mm): 110 °C | 15N NMR chemical shift (δ+) [4]: 53.2 ppm | pKa [2]: 9.95

OCCN1CCCC1 [HEP, N-hydroxyethylpyrrolidine]
boiling point ([1]; at 13 mm): 80 °C | pKa [2]: 9.95

OCCCN1CCCC1 [HPP, N-(3-hydroxypropyl)pyrrolidine]
boiling point ([1]; at 13 mm): 103 °C | pKa [2]: 10.21

OCCCN1CCCCC1 [HPPi, N-(3-hydroxypropyl)piperidine]
boiling point ([1]; at 5 mm): 97 °C | pKa [2]: 10.2

CN1CCCCC1CCO (stereo not drawn) [MHEPi, N-methyl-2-hydroxyethylpiperidine]
boiling point ([1]; at 760 mm): 233 °C | pKa [2]: 9.90

OCCCN1CCCC1 [drawing 3]
boiling point ([1]; at 13 mm): 101 °C | pKa [2]: 10.20
